This is an account of results in paper PMC12005787, “Synthetic Lethality of SHP2 and XIAP Suppresses Proliferation and Metastasis in KRAS‐mutant Nonsmall Cell Lung Cancer” (Advanced Science, 2025).

Read-outs that look alike come from different tables or passages of the source.

Data set [1] has as its system A549 and NCI‐H2122 cells. The experiment in a line: Cell proliferation in monolayer culture (CCK-8). In kind it is cell-based, human. The protocol: (§1) For the adherent cell viability assay, cells in the logarithmic growth phase were seeded in 96-well culture plates at a density of 5×103 well-1 and incubated overnight. Diluted compounds or DMSO were added, or specific treatments were incubated at 37 °C and 5% CO2 for 24 h or 48 h. Cell viability was determined using CCK-8 or CellLightTM Cell Viability Assay Kit, according to the manufacturer's protocol. The luminescence signals of the treated samples were normalized to those of the DMSO group. […]
Figure S7. Targeting SHP2 and XIAP produces a synthetic lethal effect. (A) Effects of NSC-87877 on cell viability of A549 and NCI-H2122 cells after 24 and 48 h were determined using the CCK-8. Bars, ± SEM. The curves were plotted using a variable slope (four-parameter) non-linear fit. (B, E, F, and I) Effects of Na3VO4 (B), birinapant (E), BV-6 (F), and LCL161 (I) on cell viability of human NCI-H2122 cells at 48 h were determined using the CCK-8. *p < 0.05, **p < 0.01 and ***p < 0.001 compared to control group (unpaired two-tailed Student’s t-test).(C, G) Effects of SHP099 (C) and GDC-0152 (G) on cell viability after 24 and 48 h were determined using the CCK-8. Bars, ± SEM. The curves were plotted using a variable slope (four-parameter) non-linear fit.(D, H) Effects of SHP099 (D) and GDC-0152 (H) on cell viability were determined after 48 h using intracellular ATP chemiluminescence. **p < 0.01 and ***p < 0.001 compared to control group (unpaired two-tailed Student’s t-test).(J) Effects of SHP099 and GDC-0152 separately and in combination, and the effect of embelin for 24 h on the cell viability were assessed using intracellular ATP […]
tailed Student’s t-test).(K) Effects of SHP099 and GDC-0152 separately and in combination with […] on the cell viability of human KRAS-WT and -mutant cells were assessed using a colony formation assay. (L, M) A549 and NCI-H2122 cells were instantaneously transfected with siPTPN11 and siXIAP separately and together for 24 h under

The subject of data set [2] is KRAS‐mutant NSCLC cells in 3D culture. Kind of data set: Cell proliferation in 3D cell culture (ATP chemiluminescence). Type of data set: cell-based. The method, then: (§2) supplies are listed in Supplementary Table S5. […]
For the adherent cell viability assay, cells in the logarithmic growth phase were seeded in 96-well culture plates at a density of 5×103 well-1 and incubated overnight. Diluted compounds or DMSO were added, or specific treatments were incubated at 37 °C and 5% CO2 for 24 h or 48 h. Cell viability was determined using CCK-8 or CellLightTM Cell Viability Assay Kit, according to the manufacturer's protocol. The luminescence signals of the treated samples were normalized to those of the DMSO group.
For spherical cell viability assays, cells in the logarithmic growth phase were inoculated ata density of 4×10^3 well-1 into 96-well spherical cell microplates and incubated at 37 °C, 5% CO2 for 24 h or 48 h. Cell viability was measured using the CellTiter-Glo® Luminescent Cell Viability 3D Cell Viability Assay Kit, according to the manufacturer’s protocol. The remaining steps were the same as those described above. […]
Figure S7. Targeting SHP2 and XIAP produces a synthetic lethal effect. (A) Effects of NSC-87877 on cell viability of A549 and NCI-H2122 cells after 24 and 48 h were determined using the CCK-8. Bars, ± SEM. […]
tailed Student’s t-test).(K) Effects of SHP099 and GDC-0152 separately and in combination with […] on the cell viability of human KRAS-WT and -mutant cells were assessed using a colony formation assay. […]

Data set [3] relates to RAS wild‐type and mutant cells. Kind of data set: Colony formation assay. In kind it is cell-based. The protocol: as §2
Colony formation experiment
Cells in the logarithmic growth phase were digested thoroughly into a single dispersed state and inoculated into six-well plates at a density of 100 well-1. Subsequently, different concentrations of the drugs were added for 14 d, consecutively, and the solution was changed every 2 d. Next, the cells were fixed with 4% formaldehyde, stained with 0.1% crystal violet, and the number of clones was counted using an inverted microscope. […]

Data set [4] deals with A549 and NCI‐H2122 cells. Kind of data set: Compound removal from culture media (western blotting). In kind it is cell-based, human. From the text: Due to the poor membrane permeability of SHP2 catalytic inhibitors,^[ [18], [30] ^] we examined the effect of embelin on SHP2 expression and phosphorylation after removing the compound from the culture media of A549 and NCI‐H2122 cells.

Data set [5] has as its system NCI-H838 cells. The experiment in a line: Cell viability assay (CCK-8). Type of data set: cell-based. To be noted: Homo sapiens. The method, then: (§3) KRAS-mutant and wild-type cells are listed in Supplementary Table S7.
as §1

Data set [6] has as its system NCI-H1915 cells. Kind of data set: Cell viability assay (CCK-8). Type of data set: cell-based. The method, then:
as §3, §1

For data set [7], the system named is NCI-H1755 cells. The experiment in a line: Cell viability assay (CCK-8). Type of data set: cell-based. To be noted: Homo sapiens. The protocol:
as §3, §1

The subject of data set [8] is SW1116 cells. The experiment in a line: Cell viability assay (CCK-8). Type of data set: cell-based. To be noted: Homo sapiens, SW 1116. The method, then: as §3, §1
Data set [9] concerns HCT116 cells. The experiment in a line: Cell viability assay (CCK-8). To be noted: Homo sapiens, HCT-116. Type of data set: cell-based. The protocol:
as §3, §1

Data set [10] has as its system NCI-H1944 cells. The experiment in a line: Cell viability assay (CCK-8). To be noted: Homo sapiens. Type of data set: cell-based. The method, then: as §3, §1
For data set [11], the system named is NCI-H1693 cells. Kind of data set: Cell viability assay (CCK-8). Type of data set: cell-based. To be noted: Homo sapiens. The protocol: as §3, §1
The test system of data set [12] is SNU-C2A cells. Kind of data set: Cell viability assay (CCK-8). Type of data set: cell-based. The method, then:
as §3, §1

The test system of data set [13] is NCI-H358 cells. The experiment in a line: Cell viability assay (CCK-8). Type of data set: cell-based. To be noted: Homo sapiens. The method, then: as §3, §1

As for `CC1(N)CCN(c2cnc(-c3cccc(Cl)c3Cl)c(N)n2)CC1` [SHP099], in data set [1], the “effect on cell proliferation in monolayer cell culture mode” value is reported as “almost no effect”. The “effect on cell proliferation in 3D cell culture” value in [2] is “partially inhibited cell proliferation”.
As usually defined, the IC50 is the point on the concentration scale where inhibition reaches its midpoint. Take `CCCCCCCCCCCC1=C(O)C(=O)C=C(O)C1=O` [Embelin]: the colony formation entry in data set [3] is “cytotoxic effects on both RAS”. Moreover, in data set [4], the “membrane permeability (inferred from removal after 6 h vs continuous 24 h treatment)” value was “strong membrane permeability”. For the same compound, the IC50 in data set [5] (NCI-H838, 48 h, read-out: IC50 at 48 h) is 10.5 ± 0.44 µM; in data set [5] (NCI-H838, RAS-wild type, 24 h, read-out: IC50 at 24 h) it was 39.79 ± 0.27 µM; in [6] (NCI-H1915, 48 h, read-out: IC50 at 48 h), 11.4 ± 0.39 µM; in data set [6] (NCI-H1915, HRAS, 24 h, read-out: IC50 at 24 h) it was 60.6 ± 0.41 µM; in data set [7] (NCI-H1755, 48 h, read-out: IC50 at 48 h), 14.2 ± 0.27 µM; in [7] (NCI-H1755, RAS-wild type, 24 h, read-out: IC50 at 24 h) it was 49.4 ± 0.32 µM. The IC50 was 7 ± 0.35 µM in data set [8] (SW1116, 48 h, read-out: IC50 at 48 h); 19.5 ± 0.29 µM in [8] (SW1116, KRAS G12A, 24 h, read-out: IC50 at 24 h); 9.6 ± 0.4 µM in data set [9] (HCT116, 48 h, read-out: IC50 at 48 h); 18.2 ± 0.9 µM in data set [9] (HCT116, KRAS G13D, 24 h, read-out: IC50 at 24 h); 21.6 ± 0.9 µM in data set [10] (NCI-H1944, 48 h, read-out: IC50 at 48 h); 31 ± 0.2 µM in data set [10] (NCI-H1944, KRAS G13D, 24 h, read-out: IC50 at 24 h). The concentration for half-maximal inhibition (IC50) is 16.2 ± 0.37 µM in [11] (NCI-H1693, 48 h, read-out: IC50 at 48 h); 42.57 ± 0.34 µM in data set [11] (NCI-H1693, RAS-wild type, 24 h, read-out: IC50 at 24 h); 8.73 ± 0.43 µM in data set [12] (48 h, read-out: IC50 at 48 h); 22.4 ± 0.5 µM in [12] (KRAS G12D, 24 h, read-out: IC50 at 24 h); 9.2 ± 0.3 µM in [13] (NCI-H358, 48 h, read-out: IC50 at 48 h); 12.2 ± 0.4 µM in [13] (NCI-H358, KRAS G12C, 24 h, read-out: IC50 at 24 h).
